The conditions of series [1]: cited from earlier work.
The conditions of series [2]: compared to the other three isomers; cited from earlier work.
Series [3] can be described thus: Metabolic stability in human liver microsomes (LM), LC-MS/MS (first table). Type of series: in vitro ADME. As for the experimental part: (§1) Metabolism of compound(s) to release (+)-α-DTHBZ was determined by the half-life (t1/2) and intrinsic clearance (CIint) in human plasma (PS) and liver microsomes (LM) using tandem mass spectrometry (LC-MS/MS).
On the technique in general: Liver microsomes are vesicles of endoplasmic reticulum, rich in cytochrome P450 enzymes.

Series [4] is described as follows: Stability in human plasma (PS), LC-MS/MS. The settings on record: read-out: Human PS t1/2. Type of series: in vitro ADME. As for the experimental part: as §1
A short description of series [5]: LM stability assay, human (second table). The conditions noted are these: human liver microsomes, Table 2. Type of series: in vitro ADME. How it is done: Metabolism of compound(s) to release (+)-α-DTHBZ was determined by the half-life (t1/2) and intrinsic clearance (CIint) in human liver microsomes (LM) using tandem mass spectrometry (LC-MS/MS).
Series [6] has as its system human cryopreserved hepatocytes. Kind of series: Heps. stability assay, human cryopreserved hepatocytes. In kind it is in vitro ADME. As for the experimental part: Metabolism of compound(s) to release (+)-α-DTHBZ was determined by the half-life (t1/2) and intrinsic clearance (CIint) in human cryopreserved hepatocytes using tandem mass spectrometry (LC-MS/MS).
Series [7] is described as follows: Kinetic solubility in PBS buffer. In kind it is physicochemical. The conditions noted are these: aqueous buffer, kinetic from dmso stock, compound suspended at 300 μM, 25° C. How it is done: Kinetic solubility was determined by suspending compound at 300 μM at pH 1.2 and 7.4 in PBS buffer. The suspension was equilibrated by shaking at 25° C. at 1100 RPM for 2 hours and then pH was measured following filtration. The filtrate was then diluted by an appropriate factor (e.g. 100-fold). Quantitation was done by LC-MS/MS with reference to a standard solution.

Series [8] is described as follows: Permeability in Caco-2 cell monolayer. Type of series: in vitro ADME. The conditions noted are these: human. How it is done:
The intestinal permeability of compound(s) was evaluated in Caco-2 cells by assessing transport across the cell monolayer in the apical to basolateral (A-B) direction. Active efflux was also assessed by measuring transport in the basolateral to apical (BA) direction which enables evaluation of the efflux ratio. Analysis of transport is quantified by tandem mass spectrometry (LC-MS/MS).
Background: Passage across Caco-2 layers is used to estimate intestinal permeability.

The conditions of series [9]: cited from earlier work. The source holds these as a separate data set.
For series [10] the following is noted: human, oral 25 mg IR formulation; cited from earlier work.
For series [11] the following is noted: in vivo; cited from earlier work.
Series [12] has as its target vesicular monoamine transporter-2 (VMAT2) (Homo sapiens, UniProt Q05940). The conditions noted are these: read-out: IC50, inhibition of catecholamine uptake by VMAT2; cited from earlier work.
Series [13] has as its system VMAT1, other receptors (e.g., dopamine D2 receptors), transporters, and ion channels. The settings on record: in vitro; cited from earlier work.

Consider four compounds from US20210087191A1, “SUBSTITUTED 3-ISOBUTYL-9,10-DIMETHOXY-1,3,4,6,7,11B-HEXAHYDRO-2H-PYRIDO[2,1-a]ISOQUINOLIN-2-OL COMPOUNDS, THEIR [sequence], AND USE THEREOF” (DISPERSOL TECHNOLOGIES, LLC, priority 2020, published 2021).

Converted amounts (≈) assume the structure as drawn. Like-named read-outs stand apart in the source and are kept apart here.

Chain of vesicular monoamine transporter-2 (VMAT2) (Q05940 whole entry, species assumed): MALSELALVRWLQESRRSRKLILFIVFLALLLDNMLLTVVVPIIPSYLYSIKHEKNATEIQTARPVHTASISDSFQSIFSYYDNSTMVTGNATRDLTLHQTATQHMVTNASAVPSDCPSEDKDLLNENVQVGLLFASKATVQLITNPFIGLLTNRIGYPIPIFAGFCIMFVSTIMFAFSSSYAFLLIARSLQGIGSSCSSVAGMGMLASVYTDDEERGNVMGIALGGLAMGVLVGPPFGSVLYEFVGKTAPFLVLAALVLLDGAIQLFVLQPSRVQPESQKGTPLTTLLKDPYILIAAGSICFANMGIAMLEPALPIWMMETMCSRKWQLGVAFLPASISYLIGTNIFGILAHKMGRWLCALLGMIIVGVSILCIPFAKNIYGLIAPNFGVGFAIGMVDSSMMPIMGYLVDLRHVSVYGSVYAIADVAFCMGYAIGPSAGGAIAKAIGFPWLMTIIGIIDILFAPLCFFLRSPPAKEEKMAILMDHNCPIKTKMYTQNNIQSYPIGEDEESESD

Take `COc1cc2c(cc1OC)[C@H]1C[C@@H](O)[C@H](CC(C)C)CN1CC2` [(+)-α-DHTBZ, 2R,3R,11bR-dihydrotetrabenazine]: in series [1] (after Valbenazine, hydrolysis of the valine ester), the “Cmax (time) of (+)-α-DHTBZ formed from Valbenazine” value was 4 to 8 h. Further, in series [1] (after administration of Valbenazine), the “Tmax of (+)-α-DHTBZ after the administration of Valbenazine” value is 4 to 8 h. The “off-target affinity” value in series [2] is on record as “no off-target affinity”.

Regarding `COc1cc2c(cc1OC)[C@H]1C[C@@H](OC(=O)c3cncc(C(=O)O)c3)[C@H](CC(C)C)CN1CC2` [Example 6, 5-([[(2R,3R,11bR)-9,10-dimethoxy-3-(2-methylpropyl)-1H,2H,3H,4H,6H,7H,11bH-pyrido[2,1-a]isoquinolin-2-yl]oxy]carbonyl)pyridine-3-carboxylic acid], the microsomal CLint is < 0.35 µL/min/mg in series [3] (Table 1, read-out: Human LM CLint (μL/min/mg protein)) and 1.67 µL/min/mg in series [5] (read-out: LM stability assay Human Clint (μL/min/mg protein)). Besides, the half-life in [3] (Table 1, read-out: Human LM t1/2) is > 32.9 h; in series [4], > 44.7 h; in series [5] (read-out: LM stability assay Human t1/2) it was 13.4 h. Moreover, the “Heps. stability assay Human t1/2 (min)” value in [6] is given as “∞”. Also, the solubility (kinetic) at 2 h worked out at 276 µM (≈ 130 µg/mL) in series [7] (pH 1.2, PBS buffer, read-out: Kinetic Solubility pH = 1.2 (300 μM)) and 294 µM (≈ 138 µg/mL) in [7] (pH 7.4, PBS buffer, read-out: Kinetic Solubility pH = 7.4 (300 μM)). The efflux ratio in series [8] (Caco-2) came out at 25.1. In [8] (Caco-2, apical to basolateral), this compound returned a Papp A→B of 0.68 ×10⁻⁶ cm/s. Moreover, the Papp B→A in [8] (Caco-2, basolateral to apical) was 17.1 ×10⁻⁶ cm/s.

Turning to `COc1cc2c(cc1OC)C1CC(=O)C(CC(C)C)CN1CC2` (stereo not drawn) [TBZ, 3-isobutyl-9,10-dimethoxy-1,3,4,6,7,11b-hexahydro-2H-pyrido[2,1-a]isoquinolin-2-one], in [9] (pH<2), the “solubility in acidic environments” value is 8500 µg/mL (≈ 26.8 mM). Also, the “solubility in neutral environments” value in series [9] (pH>4) was 30 µg/mL (≈ 0.0945 mM). In [10], the “Mean Tmax” value is listed as “approximately 1 hour” and the “mean t1/2” value is reported as “approximately 2 hours”. Moreover, in [11], the Tmax was 1 h. The IC50 in series [12] was 3.2 nM.

In the case of `COc1cc2c(cc1OC)[C@H]1C[C@@H](OC(=O)[C@@H](N)C(C)C)[C@H](CC(C)C)CN1CC2` [Valbenazine, (2R,3R,11bR)-9,10-dimethoxy-3-(2-methylpropyl)-1,3,4,6,7,11b-hexahydro-2H-benzo[a]quinolizin-2-yl L-valinate], the oral bioavailability in series [1] (in vivo, po) is reported as 49%. For the same compound, in series [1] (in vivo), the Tmax was 0.5 to 1 h, the excreted in feces is on record as 30%, the excreted in urine entry is listed as “Approximately 60%” and the “parent compound or active metabolite excreted unchanged” value is “Less than 2%”. Also, the t1/2 in [1] (in vivo) was 15 to 22 h. For the same compound, the “affinity for VMAT1, other receptors, transporters, and ion channels” value in series [13] was “little or no affinity”.

Usually solubility (kinetic) stands for solubility judged after dilution from a stock solution rather than from solid. As a reminder, the efflux ratio is the permeability from basolateral to apical divided by that in the opposite direction, in the common usage. What is called Papp A→B is the apparent permeability from the apical to the basolateral side of a cell layer. A high value points to ready permeation. One may read the Papp B→A as the apparent permeability from the basolateral to the apical side of a cell layer. In general, Tmax refers to the time at which the peak concentration occurs. The term IC50 denotes the concentration at which inhibition is half-maximal.
